Experimental data from patent publication US20260139328A1, “NOVEL MICROBIAL GENOTOXINS” (Yale University, priority 2022, published 2026).

Legend:
HeLa cells [1] = system: HeLa cells
[2] = NMR analysis of synthetic indolimine-214 after preparative HPLC purification; settings: upon preparative HPLC purification; reversible reaction in water
HeLa cells [3] = experiment: alkaline comet unwinding assay in HeLa cells; format: cell-based, human; settings: 100 μg/ml synthetic compounds, 5-6 h
Procedure: To assess DNA damage using chemical extracts of bacterial metabolites, HeLa, MC38 or HCT116 cells were treated with 5 mg/ml ethyl-acetate extracts diluted in culture medium supplemented with 10 mM HEPES for 4-6 h.
To assess DNA damage using pure compounds, HeLa cells were treated with 100 µg/ml cisplatin, 100 μg/ml, 25 μg/ml, or 10 μg/ml indolimine-214 (1), compound 2, indolimine-200 (3), indolimine-248 (4) or 0.1% DMSO diluted in culture medium supplemented with 10 mM HEPES for 4-6 h.
After treatment with ethyl-acetate extracts or pure synthetic compounds, HeLa cells were washed with PBS and collected via trypsinization. DNA damage was assessed via alkaline single cell gel electrophoresis using the Trevigen Comet Assay kit (Trevigen, Inc.) according to the manufacturer's instructions. Briefly, cells were embedded in Comet LMAgarose and loaded onto CometSlide™. Slides were placed flat at 4° C. in the dark for 10 min and then immersed overnight in Lysis Solution at 4° C. […] Comet images were acquired using a Leica DMRB fluorescence microscope. Tail DNA % (Tail DNA content as a percentage of Comet DNA content) and Tail moment (Tail length multiplied by Tail DNA %) were analyzed with OpenComet v1.3.1., and 20-50 comets were recorded for each sample.

[4] = system: circular pUC19 plasmid DNA

C(=N\CCc1ccccc1)/c1c[nH]c2ccccc12 [indolimine-248 (4)]
γ-H2AX in HeLa cells (HeLa cells [1]): triggered increased 7-H2AX in HeLa cells in a dose-dependent manner

CC(C)C/N=C/c1c[nH]c2ccccc12 [indolimine-200 (3)]
γ-H2AX in HeLa cells (HeLa cells [1]): triggered increased 7-H2AX in HeLa cells in a dose-dependent manner

CC(C)CCN=Cc1c[nH]c2ccccc12 [indolimine-214 (1)]
degradation into the two starting materials [2]: ≥ 20% | genotoxicity (γ-H2AX, HeLa) in relation to purity (HeLa cells [1]): correlated directly with its purity | γ-H2AX in HeLa cells (HeLa cells [1]): triggered increased γ-H2AX in a dose-dependent manner | tailing in alkaline comet unwinding assay (HeLa cells [3]): induced tailing | DNA damage of circular pUC19 plasmid [4]: neither synthetic indolimine-214 (1) nor compound 2 alone (up to 1 mg/ml) induced DNA damage
